Data from PMC7822874, “Chemoprotective antimalarials identified through quantitative high-throughput screening of Plasmodium blood and liver stage parasites” (Scientific Reports, 2021).
Where “and” joins values, the source holds several entries; their conditions need not be identical. Equal entries are not always repeated. Where two headings read alike, the source gives them in different places.

What was measured:
in vitro = settings: human, HepG2-A16-CD81EGFP cells, uninfected
[1] = target: Firefly luciferase (Fluc, EC 1.13.12.7) (Photinus pyralis, UniProt P08659); assay: biochemical; parameters: single determination (the paper says generally: 'qHTS assays were performed in a single replicate with a 7- to 11-point dose response format'; it is not stated for this counterscreen itself)
Chain of Firefly luciferase (Fluc, EC 1.13.12.7) (P08659 whole entry): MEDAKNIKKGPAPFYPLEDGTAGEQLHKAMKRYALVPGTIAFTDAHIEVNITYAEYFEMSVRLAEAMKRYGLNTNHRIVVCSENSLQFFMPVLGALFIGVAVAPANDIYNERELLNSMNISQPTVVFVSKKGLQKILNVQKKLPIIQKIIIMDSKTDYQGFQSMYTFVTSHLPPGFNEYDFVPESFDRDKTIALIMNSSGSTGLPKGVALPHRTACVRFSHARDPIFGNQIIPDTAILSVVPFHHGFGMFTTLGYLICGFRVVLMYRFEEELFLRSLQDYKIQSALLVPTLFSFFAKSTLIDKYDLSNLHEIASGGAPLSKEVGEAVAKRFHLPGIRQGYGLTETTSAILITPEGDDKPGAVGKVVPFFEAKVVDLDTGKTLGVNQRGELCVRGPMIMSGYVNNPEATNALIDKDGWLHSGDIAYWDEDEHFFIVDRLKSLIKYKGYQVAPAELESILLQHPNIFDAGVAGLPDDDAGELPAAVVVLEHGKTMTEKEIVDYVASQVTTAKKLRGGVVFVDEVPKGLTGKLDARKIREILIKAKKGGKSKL

[2] = test system: Plasmodium falciparum Dd2 asexual blood stage parasites; assay: microbe, parasite or virus in culture; parameters: species or system Plasmodium falciparum Dd2 in human erythrocytes; single determination (one 11-point concentration-response curve); settings: Plasmodium falciparum, DD2, Erythrocyte, 72 h; read-out: AC50
[3] = test system: T1, Plasmodium falciparum Dd2-attB (parental line), asexual blood stages; assay: microbe, parasite or virus in culture; parameters: replicate k of 3 (each line is one of three independent assays; the three lines of one compound and parasite line follow each other); settings: n = 1; for Individual replicates / Log AC50 (M): 72 h; for AC50: Plasmodium falciparum, DD2, 72 h, read-out: Individual replicates / Log AC50 (converted)
T1 construct: Dd2-attB, the isogenic parental line
In short: (§1)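 Only some compounds were profiled here. Each was assayed three independent times against the Dd2-attB parent and its yeast-DHODH-overexpressing derivative.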

[4] = test system: T1, Plasmodium falciparum Dd2-attB (parental line), asexual blood stages; assay: microbe, parasite or virus in culture; parameters: species or system P. falciparum Dd2-attB in human erythrocytes; SYBR Green-I proliferation assay, Dd2-attB parental line, asexual blood stages; settings: Plasmodium falciparum, DD2, Erythrocyte, 72 h, read-out: Calculated / Average Log AC50 (M), mean of replicates, 72 h (converted)
[5] = test system: P. berghei-ANKA-GFP-LucCON liver stage parasites in HepG2-A16-CD81EGFP cells; assay: P. berghei liver stage Pb-Luc assay, Method 1 (UCSD, 1536-well); type: cell-based, Plasmodium berghei; settings: Method 1; for Max Resp (signal direction of the dose response): Decrease = decreasing P. berghei viability with dose, Increase = increasing signal, Inactive = no dose response
[6] = test system: T2, Plasmodium falciparum Dd2-attB-ScDHODH (transgenic line expressing yeast DHODH), asexual blood stages; assay: organism not typed; parameters: replicate k of 3 (each line is one of three independent assays; the three lines of one compound and parasite line follow each other); settings: 72 h, n = 1; for AC50: read-out: Individual replicates / Log AC50 (converted)
T2 construct: Dd2-attB-ScDHODH, the transgenic line that expresses yeast DHODH
In short: as §1

[7] = test system: luciferase-expressing P. berghei liver stage parasites in HepG2 cells; assay: Inhibition of liver-stage development assay (ILSDA), Method 2 (WRAIR, 96-well); type: cell-based, Plasmodium berghei
[8] = test system: P. falciparum Dd2 Cytb F123L; assay: SYBR Green ABS proliferation assay, NCGC00473217 selected clone G08; type: cell-based, Plasmodium falciparum; settings: Plasmodium falciparum
In short: (§2)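 72 h SYBR Green-I read; % response = relative growth vs controls. Clones from resistance selection, cloned by limiting dilution; 37 °C, 5% CO2/5% O2/90% N2.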

[9] = test system: P. falciparum Dd2 Cytb V259L; assay: SYBR Green ABS proliferation assay, NCGC00473217 selected clone F06; type: cell-based, Plasmodium falciparum; settings: Plasmodium falciparum
In short: as §2

[10] = test system: P. falciparum Dd2 Cytb A122D; assay: SYBR Green ABS proliferation assay, NCGC00473217 selected clone F12; type: cell-based, Plasmodium falciparum; settings: Plasmodium falciparum, DD2, […]; averaged from three independent replicates; top concentration 29 µM; read-out: Average AC50 (Log[M]), NCGC00473217 clone F12 (Cytb A122D) (converted)
In short: as §2

[11] = test system: P. falciparum Dd2 (clone B2) asexual blood stage parasites; assay: P. falciparum Dd2 asexual blood stage SYBR Green-I 72 h proliferation assay (qHTS); type: cell-based, Plasmodium falciparum; settings: Plasmodium falciparum, DD2, Dd2 parental; Hill fit, averaged from three independent replicates; top concentration 29 µM; read-out: Average AC50 (Log[M]), Dd2 (converted)
[12] = test system: P. falciparum Dd2 Cytb G131S; assay: SYBR Green ABS proliferation assay, NCGC00374598 selected clone C11; type: cell-based, Plasmodium falciparum; settings: Plasmodium falciparum, DD2, […]; averaged from three independent replicates; top concentration 29 µM; read-out: Average AC50 (Log[M]), NCGC00374598 clone C11 (Cytb G131S) (converted)
In short: as §2

[13] = Hill fit, 50% of maximum activity response, read-out: AC50
[14] = log10 of molar AC50 from Hill fit
[15] = Plasmodium berghei, Hill fit, 50% of maximum activity response, read-out: AC50
[16] = Plasmodium berghei, log10 of molar AC50 from Hill fit, read-out: Log AC50 (converted)

## N=c1n(N)c2ccccc2n1CC(=O)c1ccc(Br)cc1 [MLS001183984-01]
In vitro
  viability at 66 h: 103%
[1]
  AC50: 12.1 µM

## Cc1ccc(-c2nc(C)c(C(=O)O)s2)cc1 [MLS000735996-01]
[1]
  AC50: 13.6 µM

## CCOc1ccc(NC(=O)c2ccc3c(c2)N(C)C2CCCN2C3=O)cc1 (centres unmarked) [NCGC00452128-01]
[1]
  AC50: 21.5 µM

## Cc1ccc(-c2cc(O)c3cc(C)ccc3n2)cc1 [MLS000517822-01]
[2]
  AC50: 10.6 µM
[1]
  AC50: 12.1 µM

## O=C(NC1CCCCC1)c1[nH]nc2c1CCCCC2 [MLS002178094-01]
[1]
  AC50: 4.82 µM

## Cc1cn2c(=O)cc(COC(=O)c3cccc(NC(=O)COc4ccccc4Cl)c3)nc2s1 [NCGC00130619-01]
[1]
  AC50: 0.0341 µM

## Cc1ccc(C(=O)NCCn2c(C)cc3ccccc32)cc1C [NCGC00107199-01]
[1]
  AC50: 4.3 µM

## O=C(O)COc1ccc(-c2nccc(-c3cccs3)n2)cc1 [MLS000331320-01]
[1]
  AC50: 6.81 µM

## C/C(=N\OCc1cccc(C(=O)O)c1)c1ccc(Cl)cc1 [MLS000850591-01]
[1]
  AC50: 0.0136 µM

## O=C(NCCC1=CCCCC1)C1CCN(C(=O)c2ncn3c2COC(c2ccccc2)C3)CC1 (centres unmarked) [NCGC00449771-01]
[1]
  AC50: 21.5 µM

## c1ccc2sc(Sc3ncnc4sccc34)nc2c1 [MLS000334432-01]
[2]
  AC50: 0.944 µM
[1]
  AC50: 8.57 µM

## CCc1ccc2oc(-c3cccc(NC(=O)c4ccc(-c5cccc([N+](=O)[O-])c5)o4)c3)nc2c1 [NCGC00102150-01]
[1]
  AC50: 15.2 µM

## COc1ccc(C(=O)C=CNc2cc(C)ccn2)cc1 [MLS001043227-01]
[1]
  AC50: 8.57 µM

## Cc1ccc2nc(N3C(=O)CNC3=S)sc2c1 [MLS000768544-01]
[1]
  AC50: 10.8 µM

## O=C1C(c2ccc(C(F)(F)F)cc2)=C(Nc2ccc(Cl)cc2)c2ccccc21 [NCGC00107304-01]
[2]
  AC50: 1.5 µM
[3]
  Individual replicates / Log AC50 (M): -6.0986 Log AC50 (M)
  AC50: 0.564 µM
[4]
  AC50: 7.1e-07 M
[5]
  Max Resp (signal direction of the dose response): Decrease
[5]; [13]
  AC50: 0.282 µM
[5]; [14]
  Log AC50 (M): -6.550 M
[5]; [15]
  AC50: 0.158 µM
[5]; [16]
  AC50: 0.158 µM
[6]
  Individual replicates / Log AC50 (M): -5.0986 Log AC50 (M) and -5.1486 Log AC50 (M) and -5.3986 Log AC50 (M)
[7]; Method 2, Decrease = decreasing P. berghei viability with dose, Increase = increasing signal, Inactive = no dose response
  Max Resp (signal direction of the dose response): Inactive

## O=C(COc1ccc2ccccc2c1)Nc1nccs1 [MLS000718732-01]
[1]
  AC50: 8.57 µM

## CCOC(=O)Cc1csc(NC(=S)NC(=O)c2ccc(C)cc2)n1 [MLS000574610-01]
[1]
  AC50: 9.62 µM

## COc1ccc(NC(=O)c2cccc3c2CCN3C(=O)Nc2ccc(F)cc2)c(C)c1 [NCGC00430188-01]
[1]
  AC50: 7.64 µM

## O=C1c2cnc(-c3cc4ccccc4o3)nc2OCCN1Cc1ccccc1 [NCGC00413600-01]
[1]
  AC50: 11.1 µM

## O=C(Cc1ccc(O)cc1)N1CC(CNc2ccccc2)C2(C1)CN(c1ccccc1)C2 (centres unmarked) [NCGC00415859-01]
[2]
  AC50: 0.243 µM
[3]
  Individual replicates / Log AC50 (M): -6.8373 Log AC50 (M) and -6.9373 Log AC50 (M) and -6.5873 Log AC50 (M)
[4]
  AC50: 1.63e-07 M
[5]
  Max Resp (signal direction of the dose response): Decrease
[5]; [13]
  AC50: 0.631 µM
[5]; [14]
  Log AC50 (M): -6.200 M
[5]; [15]
  AC50: 0.447 µM
[5]; [16]
  AC50: 0.447 µM
[6]
  Individual replicates / Log AC50 (M): -6.4873 Log AC50 (M) and -6.7373 Log AC50 (M) and -6.8873 Log AC50 (M)
[7]; P. berghei liver stage, Method 2, dose response
  Activity direction (Decrease / Inactive): Inactive

## Cc1cc(C(N)=NOC(=O)c2ccccc2Cl)no1 [MLS000833967-01]
[1]
  AC50: 13.6 µM

## Cc1ccoc1C(=O)Nc1ccc(CC(=O)O)cc1 [MLS000122814-01]
[1]
  AC50: 12.1 µM

## Nc1nc(Nc2ccccc2)nc2ccccc12 [MLS000026767-01]
[1]
  AC50: 13.6 µM

## N#CC(=C1CCCC1)c1nc(-c2ccccc2O)cs1 [MLS000034824-01]
[2]
  AC50: 9.44 µM
[1]
  AC50: 19.2 µM

## COC(=O)c1nn(-c2ccc3c(c2)CCN3C(C)=O)cc1O [MLS000565173-01]
[1]
  AC50: 10.8 µM

## CC(C)(C)OC(=O)N1CCc2nc(C3CC3)nc(O)c2CC1 [NCGC00510066-01]
[4]
  AC50: 8.94e-06 M
[8]; DD2, cytochrome b mutant line, fifth value triple, c15, […], read-out: log AC50, mean (converted)
  AC50: 2.99e-06 M
[9]; DD2, cytochrome b mutant line, third value triple, c9, […], read-out: log AC50, mean (converted)
  AC50: 8.93e-09 M

## CC1(C)Cc2nc3sc4c(SCC(=O)O)ncnc4c3cc2CO1 [MLS000778156-01]
[1]
  AC50: 10.8 µM

## NC(=NOC(=O)/C=C/c1ccc(Br)cc1)c1ccccn1 [MLS000680558-01]
[1]
  AC50: 9.62 µM

## CCCN1C(CC(C)C)=N[S+](=O)([O-])c2cc(NC(=O)C3CC3)ccc21 [NCGC00510045-01]
[3]
  Individual replicates / Log AC50 (M): -5.8486 Log AC50 (M)
  AC50: 0.894 µM
[10]
  AC50: 4.32e-06 M
[4]
  AC50: 1.22e-06 M
[8]; DD2, […], averaged from three independent replicates, top concentration 29 µM, read-out: Average AC50 (Log[M]), NCGC00473217 clone G08 (Cytb F123L) (converted)
  AC50: 1.12e-05 M
[9]; DD2, […], averaged from three independent replicates, top concentration 29 µM, read-out: Average AC50 (Log[M]), NCGC00473217 clone F06 (Cytb V259L) (converted)
  AC50: 3.05e-06 M
[11]
  AC50: 4.32e-06 M
[12]
  AC50: 3.99e-06 M
[6]
  Individual replicates / Log AC50 (M): -5.2986 Log AC50 (M) and -5.4486 Log AC50 (M)
  AC50: 3.99 µM

## CCc1ccc(C2=CC(c3cccc(C)c3)n3c(nc4ccccc43)N2)cc1 (centres unmarked) [NCGC00140745-01]
[2]
  AC50: 15 µM
[1]
  AC50: 4.82 µM

## Cc1ccc(C(=O)Nc2sc3c(c2C(=O)O)CCCCC3)o1 [MLS000060651-01]
[1]
  AC50: 10.8 µM

## Cc1ccc2[nH]c(-c3sc4nc(C)ccc4c3N)nc2c1 [MLS000547128-01]
[1]
  AC50: 12.1 µM

## CCN(CC)CCN1C(=O)c2ccccc2NC1c1ccc(N(C)C)cc1 (centres unmarked) [MLS000554078-01]
[2]
  AC50: 4.22 µM
[1]
  AC50: 1.92 µM

## COc1ccc(NCc2cccn2-c2nnc(N3CCC(C)CC3)s2)c(OC)c1 [NCGC00127038-02]
[3]
  Individual replicates / Log AC50 (M): -4.9986 Log AC50 (M)
  AC50: 17.8 µM
[4]
  AC50: 1.26e-05 M
[6]
  Individual replicates / Log AC50 (M): -4.7486 Log AC50 (M) and -4.7986 Log AC50 (M)
  AC50: 14.2 µM

## CN(C)CC(C)(C)CNC(=O)c1cccc(-c2cc(O)c3ncccc3c2)c1 [NCGC00244532-01]
[3]
  Individual replicates / Log AC50 (M): -4.7986 Log AC50 (M) and -5.1486 Log AC50 (M) and -4.8486 Log AC50 (M)
[4]
  AC50: 1.17e-05 M
[6]
  Individual replicates / Log AC50 (M): -4.7486 Log AC50 (M) and -5.0986 Log AC50 (M)
